{"source": "paper PMC6591010", "about": "(Molecular cell, 2019)", "key": {"[1]": {"target": "Sc condensin holocomplex (Saccharomyces cerevisiae, UniProt P38989+Q12267)", "conditions": "with or without DNA"}, "[2]": {"target": "Ct Smc4hd–Brn1C (Thermochaetoides thermophila, UniProt G0S2G2, DEL467-1366/Q421L)", "sequence (G0S2G2 264-466 Q421L)": "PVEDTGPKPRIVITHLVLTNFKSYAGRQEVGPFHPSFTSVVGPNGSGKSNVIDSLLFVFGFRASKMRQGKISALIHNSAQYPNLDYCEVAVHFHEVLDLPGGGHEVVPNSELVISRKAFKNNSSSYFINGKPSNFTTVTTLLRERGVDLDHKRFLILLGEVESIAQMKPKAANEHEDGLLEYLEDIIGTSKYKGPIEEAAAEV", "sequence (G0S2G2 1367-1542, stated change not applied)": "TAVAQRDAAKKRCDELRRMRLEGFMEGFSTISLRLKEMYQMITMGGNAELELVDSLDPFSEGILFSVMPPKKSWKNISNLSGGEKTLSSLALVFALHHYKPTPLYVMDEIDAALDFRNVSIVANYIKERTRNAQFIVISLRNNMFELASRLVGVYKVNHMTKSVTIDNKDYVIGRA", "sequence (G0SBJ6 765-898 partner)": "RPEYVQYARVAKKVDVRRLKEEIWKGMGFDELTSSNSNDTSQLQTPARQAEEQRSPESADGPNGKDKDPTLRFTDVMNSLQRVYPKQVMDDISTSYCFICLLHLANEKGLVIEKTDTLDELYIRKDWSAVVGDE", "assay": "biochemical"}}, "data": [{"smiles": "Nc1ncnc2c1ncn2[C@@H]1O[C@H](COP(=O)(O)OP(=O)(O)OP(=O)(O)O)[C@@H](O)[C@H]1O", "note": "[ATP]", "values": [{"measurement": "ATP hydrolysis assay", "setting": "[1]", "result": "basal and DNA-stimulated ATPase activities of condensin holocomplexes"}, {"measurement": "Kd", "setting": "[2]", "result": 18.4, "unit": "µM"}]}]}
